US20260250289A1, “BICYCLIC HETEROCYCLES AND THEIR USE AS WRN INHIBITORS” (Novartis AG, priority 2022, published 2026)

Experiments:
[1] = target: T1, WRN helicase (aa N517-P1238) (Homo sapiens, UniProt Q14191); assay: WRN ATPase assay (DNA dependent ATP hydrolysis, ADP-Glo); type: biochemical; conditions: 3 hours pre-incubation, 300 micromolar ATP, FLAP26 DNA; geometric mean of at least 2
T1 construct: The core helicase motif of the WRN protein (aa N517-P1238) was produced for this assay; His (N); ZZ (N); 3C protease cleavage site (N); made in house; host or cells: Sf21 insect cells (baculovirus; virus and BIICs made in SF9)
Method in brief: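 DNA-dependent ATP hydrolysis detected as ADP by ADP-Glo luminescence, using 300 μM ATP, 0.2 nM FLAP26 substrate and 10 nM WRN aa N517-P1238 (Tris pH 7.5 buffer, 2 mM MgCl2, 50 mM NaCl). IC50s fitted from normalized duplicate half-log dilutions; reported as geometric means of at least 2 replicates.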

SW48 cells = assay: Proliferation assay SW48 (CellTiterGlo); type: cell-based; conditions: Homo sapiens, SW48, 96 h, SW48 colon carcinoma cells, 96 hours, CellTiterGlo; geometric mean of at least 2; read-out: Proliferation Assay SW48 GI50
Method in brief: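 SW48 cells, 2,000/well, treated after overnight seeding with eight 3-fold compound dilutions (0.1% DMSO) for 96 hours at 37° C. Viability read as ATP by CellTiterGlo luminescence, normalised to a day-0 plate and vehicle to give % growth; GI50 is geometric mean of ≥2 independent replicates.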

DLD1-WRN-KO cells = assay: Proliferation assay DLD1-WRN-KO (CellTiterGlo, off-target effects); type: cell-based; conditions: 96 hours, geometric mean of at least 2
Method in brief: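 DLD1 cells with CRISPR knockout of WRN were exposed overnight-seeded to eight 3-fold compound dilutions (0.1% DMSO) for 96 h at 37 °C. Viability was read as ATP by CellTiterGlo luminescence against a day-0 plate, giving GI50 and residual viability at top concentration.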

T1 sequence (Q14191 517-1238): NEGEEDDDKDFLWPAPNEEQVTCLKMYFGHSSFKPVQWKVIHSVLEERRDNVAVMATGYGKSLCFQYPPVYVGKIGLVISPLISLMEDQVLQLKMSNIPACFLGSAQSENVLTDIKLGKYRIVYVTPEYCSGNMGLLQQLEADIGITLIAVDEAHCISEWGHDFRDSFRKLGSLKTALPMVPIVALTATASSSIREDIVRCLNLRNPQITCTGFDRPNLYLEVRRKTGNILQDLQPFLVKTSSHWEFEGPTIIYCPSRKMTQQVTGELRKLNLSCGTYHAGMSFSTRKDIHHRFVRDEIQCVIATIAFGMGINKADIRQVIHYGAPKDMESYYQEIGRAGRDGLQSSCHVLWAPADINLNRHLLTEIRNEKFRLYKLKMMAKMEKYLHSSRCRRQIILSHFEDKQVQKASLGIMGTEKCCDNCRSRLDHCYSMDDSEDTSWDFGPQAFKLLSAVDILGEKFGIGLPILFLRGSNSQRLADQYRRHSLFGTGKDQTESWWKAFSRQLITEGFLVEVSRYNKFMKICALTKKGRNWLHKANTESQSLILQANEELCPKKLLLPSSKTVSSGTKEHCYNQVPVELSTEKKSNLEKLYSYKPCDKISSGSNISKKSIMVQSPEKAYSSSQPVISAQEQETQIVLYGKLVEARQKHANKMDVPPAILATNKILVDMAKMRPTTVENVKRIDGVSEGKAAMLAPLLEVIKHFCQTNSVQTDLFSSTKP

Row | SMILES | IC50 [1] | GI50 (SW48 cells) | GI50 (DLD1-WRN-KO cells)
1 | CC(=O)N1CCN(c2c(C)n(CC(=O)Nc3ccc(C(F)(F)F)cc3)c3nc(N4CC5CC5C4)nn3c2=O)CC1 (stereo not drawn) [Example 125, 2-(6-(4-acetylpiperazin-1-yl)-2-(3-azabicyclo[3.1.0]hexan-3-yl)-5-methyl-7-oxo-[1,2,4]triazolo[1,5-a]pyrimidin-4(7H)-yl)-N-(4-(trifluoromethyl)phenyl)acetamide] | 800 nM | 3000 nM | > 10000 nM
2 | CC(=O)N1CCN(c2c(C)n(CC(=O)Nc3cc(F)c(Cl)cc3Cl)c3nc(C4=CCOCC4)nn3c2=O)CC1 [Example 97, 2-(6-(4-acetylpiperazin-1-yl)-2-(3,6-dihydro-2H-pyran-4-yl)-5-methyl-7-oxo-[1,2,4]triazolo[1,5-a]pyrimidin-4(7H)-yl)-N-(2,4-dichloro-5-fluorophenyl)acetamide] | 1000 nM | 4000 nM | > 10000 nM
3 | CC(=O)N1CCN(c2c(C)n(CC(=O)Nc3ccc(C(F)(F)F)cc3)c3nc(C4=CCN(CC(F)F)CC4)nn3c2=O)CC1 [Example 119, 2-(6-(4-acetylpiperazin-1-yl)-2-(1-(2,2-difluoroethyl)-1,2,3,6-tetrahydropyridin-4-yl)-5-methyl-7-oxo-[1,2,4]triazolo[1,5-a]pyrimidin-4(7H)-yl)-N-(4-(trifluoromethyl)phenyl)acetamide] | 600 nM | 6000 nM | > 10000 nM
4 | Cc1c(C2CCN(C(=O)c3c(F)ccc(F)c3O)CC2)c(=O)n2nc(C3=CCOCC3)nc2n1CC(=O)Nc1ccc(C(F)(F)F)cc1 [Example 136, 2-(6-(1-(3,6-difluoro-2-hydroxybenzoyl)piperidin-4-yl)-2-(3,6-dihydro-2H-pyran-4-yl)-5-methyl-7-oxo-[1,2,4]triazolo[1,5-a]pyrimidin-4(7H)-yl)-N-(4-(trifluoromethyl)phenyl)acetamide] | 20 nM | 500 nM | > 10000 nM
5 | COC1CC=C(c2nc3n(CC(=O)Nc4ccc(C(F)(F)F)cc4)c(C)c(N4CCN(C(C)=O)CC4)c(=O)n3n2)CC1 (stereo not drawn) [Example 107, 2-(6-(4-acetylpiperazin-1-yl)-2-(4-methoxycyclohex-1-en-1-yl)-5-methyl-7-oxo-[1,2,4]triazolo[1,5-a]pyrimidin-4(7H)-yl)-N-(4-(trifluoromethyl)phenyl)acetamide] | 200 nM | 3000 nM | > 10000 nM
6 | COC(=O)N1CC=C(c2nc3n(CC(=O)Nc4ccc(S(F)(F)(F)(F)F)cc4)c(C)c(N4CCN(C(C)=O)CC4)c(=O)n3n2)CC1 [Example 156, methyl 4-(6-(4-acetylpiperazin-1-yl)-5-methyl-7-oxo-4-(2-oxo-2-((4-(pentafluoro-16-sulfaneyl)phenyl)amino)ethyl)-4,7-dihydro-[1,2,4]triazolo[1,5-a]pyrimidin-2-yl)-3,6-dihydropyridine-1(2H)-carboxylate] | 200 nM | 3000 nM | > 10000 nM
7 | Cc1c(N2CCN(C(=O)c3c(O)ccc4ccnn34)CC2)c(=O)n2nc(C3=CCOCC3)nc2n1CC(=O)Nc1ccc(C(F)(F)F)cc1 [Example 35, 2-(2-(3,6-dihydro-2H-pyran-4-yl)-6-(4-(6-hydroxypyrazolo[1,5-a]pyridine-7-carbonyl)piperazin-1-yl)-5-methyl-7-oxo-[1,2,4]triazolo[1,5-a]pyrimidin-4(7H)-yl)-N-(4-(trifluoromethyl)phenyl)acetamide] | 40 nM | 300 nM | > 10000 nM
8 | CC(=O)N1CCN(c2c(C)n(CC(=O)Nc3cc(C(F)(F)F)c(Cl)cc3C)c3nc(C4=CCOCC4)nn3c2=O)CC1 [Example 80, 2-(6-(4-acetylpiperazin-1-yl)-2-(3,6-dihydro-2H-pyran-4-yl)-5-methyl-7-oxo-[1,2,4]triazolo[1,5-a]pyrimidin-4(7H)-yl)-N-(4-chloro-2-methyl-5-(trifluoromethyl)phenyl)acetamide] | 300 nM | 800 nM | > 10000 nM

The remaining lines, values ahead:

Row | IC50 [1] | GI50 (SW48 cells) | GI50 (DLD1-WRN-KO cells) | SMILES
9 | 100 nM | 2000 nM | > 10000 nM | COc1cccc(C(=O)N2CCN(c3c(C)n(CC(=O)Nc4ccc(C(F)(F)F)cc4)c4nc(C5=CCOCC5)nn4c3=O)CC2)c1N [Example 155, 2-(6-(4-(2-amino-3-methoxybenzoyl)piperazin-1-yl)-2-(3,6-dihydro-2H-pyran-4-yl)-5-methyl-7-oxo-[1,2,4]triazolo[1,5-a]pyrimidin-4(7H)-yl)-N-(4-(trifluoromethyl)phenyl)acetamide]
10 | 90 nM | 1000 nM | > 10000 nM | Cc1nc2ccccc2c(C(=O)N2CCN(c3c(C)n(CC(=O)Nc4ccc(C(F)(F)F)cc4)c4nc(C5=CCOCC5)nn4c3=O)CC2)c1O [Example 20, 2-(2-(3,6-dihydro-2H-pyran-4-yl)-6-(4-(3-hydroxy-2-methylquinoline-4-carbonyl)piperazin-1-yl)-5-methyl-7-oxo-[1,2,4]triazolo[1,5-a]pyrimidin-4(7H)-yl)-N-(4-(trifluoromethyl)phenyl)acetamide]
11 | 20 nM | 100 nM | > 10000 nM | CCc1c(N2CCN(C(=O)c3c(F)ccc(F)c3O)CC2)c(=O)n2nc(C3=CCOCC3)nc2n1CC(=O)Nc1ccc(C(F)(F)F)cc1C [Example 68, 2-(6-(4-(3,6-difluoro-2-hydroxybenzoyl)piperazin-1-yl)-2-(3,6-dihydro-2H-pyran-4-yl)-5-ethyl-7-oxo-[1,2,4]triazolo[1,5-a]pyrimidin-4(7H)-yl)-N-(2-methyl-4-(trifluoromethyl)phenyl)acetamide]
12 | 70 nM | 900 nM | > 10000 nM | CC(=O)N(C)Cc1ccc(-c2nc3n(CC(=O)Nc4ccc(C(F)(F)F)cc4)c(C)c(N4CCN(C(C)=O)CC4)c(=O)n3n2)cc1 [Example 70, 2-(6-(4-acetylpiperazin-1-yl)-5-methyl-2-(4-((N-methylacetamido)methyl)phenyl)-7-oxo-[1,2,4]triazolo[1,5-a]pyrimidin-4(7H)-yl)-N-(4-(trifluoromethyl)phenyl)acetamide]
13 | 30 nM | 100 nM | > 10000 nM | CCc1c(N2CCN(C(=O)c3c(F)ccc(F)c3O)CC2)c(=O)n2nc(C3=CCCCO3)nc2n1CC(=O)Nc1ccc(C(F)(F)F)cc1 [Example 38, 2-(6-(4-(3,6-difluoro-2-hydroxybenzoyl)piperazin-1-yl)-2-(3,4-dihydro-2H-pyran-6-yl)-5-ethyl-7-oxo-[1,2,4]triazolo[1,5-a]pyrimidin-4(7H)-yl)-N-(4-(trifluoromethyl)phenyl)acetamide]
14 | 500 nM | 4000 nM | > 10000 nM | CC(=O)N1CCN(c2c(C)n(CC(=O)Nc3ccc(C(F)(F)F)cc3)c3nc(C4=CCOCC4)nn3c2=O)CC1 [Example 69, 2-(6-(4-acetylpiperazin-1-yl)-2-(3,6-dihydro-2H-pyran-4-yl)-5-methyl-7-oxo-[1,2,4]triazolo[1,5-a]pyrimidin-4(7H)-yl)-N-(4-(trifluoromethyl)phenyl)acetamide]
15 | 2000 nM | 10000 nM | > 10000 nM | CON1CCN(c2nc3n(CC(=O)Nc4ccc(C(F)(F)F)cc4)c(C)c(N4CCN(C(C)=O)CC4)c(=O)n3n2)CC1 [Example 132, 2-(6-(4-acetylpiperazin-1-yl)-2-(4-methoxypiperazin-1-yl)-5-methyl-7-oxo-[1,2,4]triazolo[1,5-a]pyrimidin-4(7H)-yl)-N-(4-(trifluoromethyl)phenyl)acetamide]
